Measurements reported in patent US11596611B2, “Hepatitis B antiviral agents” (ENANTA PHARMACEUTICALS, INC., priority 2017, dated 2023).
pEC50: −log10 of the molar value.

Each molecule was assayed on HBV (assay: HepAD38 antiviral assay: reduction of viral product accumulation (virion DNA by qPCR, HBsAg or HBeAg by ELISA)). Settings: HepAD38 cells, five days after compound addition; 50% reduction of viral product vs no drug controls; read-out: HepAD38 EC50.
Type: cell-based, hepatitis B virus
Method: Methods: HepAD38 cells are maintained as previously reported (Ladner et al, Antimicrob. Agents Chemother. 1997, […], 1715). Briefly, cells are passaged upon attaining confluency in DMEM/F12 media in the presence of 10% FBS, Penn/Strep, 250 μg/mL G418, and 1 ug/ml tetracycline. Novel compounds are screened by first washing cells three times with PBS to remove tetracycline, and plating in 96 well plates at 35,000 cells/well. Compounds dissolved in DMSO are then diluted 1:200 into wells containing cells. Five days after compound addition, material is harvested for analysis. For an extended 8 days analysis, cells are plated and treated as described above, but media and compound are refreshed on d2 and d5 post initial treatment.
On harvest day, virion DNA is obtained by lysing with Sidestep Lysis and Stabilization Buffer and then quantified via quantitative real time PCR. Commercially available ELISA kits are used to quantitate the viral proteins HBsAg (Alpco) or HbeAg (US Biological) by following the manufacturer's recommended protocol after diluting samples to match the linear range of their respective assays.

SMILES	pEC50
O=C(Nc1cc(F)c(F)c(F)c1)c1ccc(Cl)c(S(=O)(=O)[C@H]2CC3CCC(C2)[C@]3(O)[C@H](O)[C@@H](O)CO)c1 [Example 51]	> 6.98

Same assay, conditions: Hepatitis B virus, 120 h; HepAD38 cells, five days after compound addition; 50% reduction of viral product vs no drug controls; read-out: HepAD38 EC50

SMILES	pEC50
C[C@]1(O)C2CCC1C[C@@H](S(=O)(=O)c1cc(C(=O)Nc3ccc(F)c(F)c3)c(-c3ccccc3)cc1Cl)C2 [Example 101]	< 6.70
C[C@H](O)COCC1(O)CC(S(=O)(=O)c2cc(C(=O)Nc3ccc(F)c(F)c3)ccc2Cl)C1 (stereo partly shown) [Example 230]	< 6.70
C[C@]1(O)C2CCC1C[C@@H](S(=O)(=O)c1cccc(C(=O)Nc3cc(F)c(F)c(F)c3)c1)C2 [Example 37]	6.70 to 7.00
C[C@]1(O)C2CCC1C[C@@H](S(=O)(=O)c1cc(C(=O)Nc3ccc(C#N)c(F)c3)ccc1Cl)C2 [Example 45]	< 6.70
CC(C)(C)OC(=O)N1CC[C@@H](O)[C@H]1C(=O)NC[C@@]1(O)C2CC[C@H]1C[C@H](S(=O)(=O)c1cc(C(=O)Nc3cc(F)c(F)c(F)c3)ccc1Cl)C2 [Example 76]	> 6.98
O=C(Nc1ccc(F)c(F)c1)c1ccc(Cl)c(S(=O)(=O)CC2CC(O)(CO)C2)c1 (stereo not shown) [Example 200]	< 6.70
O=C(Nc1ccc(F)c(F)c1)c1ccc(Cl)c(S(=O)(=O)[C@H]2CC3CCC(C2)[C@@]3(O)C(O)CN2CCCS2(=O)=O)c1 (stereo partly shown) [Example 309]	6.70 to 7.00
O=C(Nc1ccc(F)c(F)c1)c1ccc(Cl)c(S(=O)(=O)C2CC3CCC(C2)C3=O)c1 (stereo not shown) [Example 204]	6.70 to 7.00
CC(C)(O)C[C@]1(O)CC[C@@H](CS(=O)(=O)c2cc(C(=O)Nc3ccc(F)c(F)c3)ccc2Cl)CC1 [Example 228]	< 6.70
COC(=O)CNC(=O)C[C@]1(O)C2CCC1C[C@@H](S(=O)(=O)c1cc(C(=O)Nc3cc(F)c(F)c(F)c3)ccc1Cl)C2 [Example 119]	< 6.70
COC(=O)N[C@@H](C)C(=O)NC[C@]1(O)C2CCC1C[C@@H](S(=O)(=O)c1cc(C(=O)Nc3cc(F)c(F)c(F)c3)ccc1Cl)C2 [Example 48]	> 6.98
O=C(O)CNC(=O)C[C@]1(O)C2CCC1C[C@@H](S(=O)(=O)c1cc(C(=O)Nc3cc(F)c(F)c(F)c3)ccc1Cl)C2 [Example 120]	< 6.70
O=C(Nc1ccc(F)c(F)c1)c1ccc(Cl)c(S(=O)(=O)C2CC(C(=O)O)C2)c1 (stereo not shown) [Example 251]	< 6.70
C[C@@H](O)COCC1(O)CCC(CS(=O)(=O)c2cc(C(=O)Nc3ccc(F)c(F)c3)ccc2Cl)CC1 (stereo partly shown) [Example 197]	< 6.70
O=C(Nc1ccc(F)c(F)c1)c1ccc(Cl)c(S(=O)(=O)[C@@H]2CC3CC[C@@H](C2)[C@@]3(O)[C@H](O)c2cc(F)ccn2)c1 [Example 299]	> 6.98
O=C(Nc1ccc(F)c(F)c1)c1ccc(Cl)c(S(=O)(=O)[C@H]2CC3CCC(C2)[C@]3(O)C(O)Cn2cccn2)c1 (stereo partly shown) [Example 314]	> 6.98
O=C(Nc1ccc(F)c(F)c1)c1ccc(Cl)c(S(=O)(=O)CC2CCC3(CC2)OCCO3)c1 [Example 216]	6.70 to 7.00
O=C(Nc1ccc(F)c(F)c1)c1ccc(Cl)c(S(=O)(=O)[C@H]2CC3CCC(C2)[C@]3(O)C(O)C(O)CN2CCOC2=O)c1 (stereo partly shown) [Example 313]	> 6.98
C[C@H](O)[C@@H](O)[C@@]1(O)C2CC(O)C1C[C@H](S(=O)(=O)c1cc(C(=O)Nc3ccc(F)c(F)c3)ccc1Cl)C2 (stereo partly shown) [Example 337]	< 6.70
CCC1(O)CC(S(=O)(=O)c2cc(C(=O)Nc3ccc(F)c(F)c3)ccc2Cl)C1 (stereo not shown) [Example 233]	< 6.70
O=C(Nc1ccc(F)c(F)c1)c1ccc(Cl)c(S(=O)(=O)C2CC(O)(CCCO)C2)c1 (stereo not shown) [Example 241]	< 6.70
O=C(Nc1ccc(F)c(F)c1)c1ccc(Cl)c(S(=O)(=O)[C@@H]2CC3CC[C@@H](C2)[C@@]3(O)C(O)c2ccnc(Br)c2F)c1 (stereo partly shown) [Example 298]	> 6.98
C[C@]1(O)C2CCC1C[C@@H](S(=O)(=O)c1cc(C(=O)Nc3ccc(F)c(Br)c3)ccc1Cl)C2 [Example 30]	> 6.98
CC(=O)C[C@]1(O)CC[C@H](CS(=O)(=O)c2cc(C(=O)Nc3ccc(F)c(F)c3)ccc2Cl)CC1 [Example 222]	6.70 to 7.00
COC(=O)N[C@@H](CCC(N)=O)C(=O)NC[C@]1(O)C2CCC1C[C@@H](S(=O)(=O)c1cc(C(=O)Nc3cc(F)c(F)c(F)c3)ccc1Cl)C2 [Example 84]	< 6.70
COC(=O)[C@H](C)NC(=O)C1CC(S(=O)(=O)c2cc(C(=O)Nc3ccc(F)c(F)c3)ccc2Cl)C1 (stereo partly shown) [Example 255]	< 6.70
CC(C)([C@H]1CC[C@](C)(O)CC1)S(=O)(=O)c1cc(C(=O)Nc2ccc(F)c(F)c2)ccc1Cl [Example 238]	< 6.70
CC[C@@H](O)[C@H](O)[C@]1(O)C2CCC1C[C@@H](S(=O)(=O)c1cc(C(=O)Nc3ccc(F)c(F)c3)ccc1Cl)C2 (racemic) [Example 333]	> 6.98

SMILES	pEC50
O=C(Nc1cc(F)c(F)c(F)c1)c1ccc(Cl)c(S(=O)(=O)[C@H]2CC3CCC(C2)[C@]3(O)CNC(=O)C2CC=CCC2)c1 (stereo partly shown) [Example 18]	> 6.98
Cc1cc(Cl)c(S(=O)(=O)[C@H]2CC3CCC(C2)[C@@]3(C)O)cc1C(=O)Nc1ccc(F)c(F)c1 [Example 69]	> 6.98
O=C(Nc1ccc(F)c(F)c1)c1ccc(Cl)c(S(=O)(=O)C2CC(O)(CO)C2)c1 (stereo not shown) [Example 220]	< 6.70
COC(=O)CCNC(=O)CC1(O)CC(S(=O)(=O)c2cc(C(=O)Nc3ccc(F)c(F)c3)ccc2Cl)C1 (stereo not shown) [Example 248]	< 6.70
O=C(Nc1ccc(F)c(F)c1)c1ccc(Cl)c(S(=O)(=O)[C@H]2CC3CCC(C2)[C@]3(O)C(=O)O)c1 [Example 205]	< 6.70
O=C(Nc1ccc(F)c(F)c1)c1ccc(Cl)c(S(=O)(=O)[C@H]2C[C@@H](CO)C2)c1 [Example 252b]	< 6.70
C[C@]1(O)C2CCC1C[C@@H](S(=O)(=O)c1cc(C(=O)Nc3ccc(F)c(F)c3)c(-c3cccnc3)cc1Cl)C2 [Example 102]	< 6.70
CN1C2CCC1CC(S(=O)(=O)c1cc(C(=O)Nc3cc(F)c(F)c(F)c3)ccc1Cl)C2 (stereo not shown) [Example 145]	< 6.70
COC(=O)NCCC(=O)NC[C@@]1(O)C2CC[C@H]1C[C@H](S(=O)(=O)c1cc(C(=O)Nc3cc(F)c(F)c(F)c3)ccc1Cl)C2 [Example 80]	> 6.98
O=C(Nc1ccc(F)c(F)c1)c1ccc(Cl)c(S(=O)(=O)C2CO[C@@H]3C(O)CO[C@H]23)c1 (stereo partly shown) [Example 201]	< 6.70
CC(O)C[C@]1(O)CC[C@@H](CS(=O)(=O)c2cc(C(=O)Nc3ccc(F)c(F)c3)ccc2Cl)CC1 (stereo partly shown) [Example 224]	6.70 to 7.00
CC(C)C(O)[C@]1(O)C2CCC1C[C@@H](S(=O)(=O)c1cc(C(=O)Nc3ccc(F)c(F)c3)ccc1Cl)C2 (stereo partly shown) [Example 281]	< 6.70
COC(=O)N1CCC[C@H]1C(=O)N1C2CCC1CC(S(=O)(=O)c1cc(C(=O)Nc3cc(F)c(F)c(F)c3)ccc1Cl)C2 (stereo partly shown) [Example 143]	< 6.70
C[C@H](O)[C@H](O)[C@]1(O)C2CCC1C[C@@H](S(=O)(=O)c1cc(C(=O)Nc3ccc(F)c(F)c3)ccc1Cl)C2 (single isomer, unassigned) [Example 181]	> 6.98
COC(=O)N[C@@H](CO)C(=O)NC[C@]1(O)C2CCC1C[C@@H](S(=O)(=O)c1cc(C(=O)Nc3cc(F)c(F)c(F)c3)ccc1Cl)C2 [Example 49]	< 6.70
O=C(O)CCNC(=O)C[C@]1(O)C2CCC1C[C@@H](S(=O)(=O)c1cc(C(=O)Nc3cc(F)c(F)c(F)c3)ccc1Cl)C2 [Example 140]	< 6.70
O=C(CC1(O)CC(S(=O)(=O)c2cc(C(=O)Nc3ccc(F)c(F)c3)ccc2Cl)C1)NCCO (stereo not shown) [Example 245]	< 6.70
O=C1NC(C(=O)NC[C@]2(O)C3CCC2C[C@@H](S(=O)(=O)c2cc(C(=O)Nc4cc(F)c(F)c(F)c4)ccc2Cl)C3)CO1 (stereo partly shown) [Example 97]	6.70 to 7.00
Cc1cccc([C@@H](O)[C@@]2(O)C3CC[C@H]2C[C@H](S(=O)(=O)c2cc(C(=O)Nc4ccc(F)c(F)c4)ccc2Cl)C3)n1 [Example 294b]	> 6.98
C[C@]1(O)C2CCC1C[C@@H](S(=O)(=O)c1cc(C(=O)Nc3cccnn3)ccc1Cl)C2 [Example 213]	< 6.70
Cn1nccc1C(O)[C@]1(O)C2CCC1C[C@@H](S(=O)(=O)c1cc(C(=O)Nc3ccc(F)c(F)c3)ccc1Cl)C2 (stereo partly shown) [Example 288]	> 6.98
COC(=O)CCNC(=O)[C@H]1C[C@H](S(=O)(=O)c2cc(C(=O)Nc3ccc(F)c(F)c3)ccc2Cl)C1 [Example 257a]	< 6.70
COC(=O)CNC(=O)[C@H]1C[C@H](S(=O)(=O)c2cc(C(=O)Nc3ccc(F)c(F)c3)ccc2Cl)C1 [Example 253a]	< 6.70
CC(O)C[C@]1(O)CC[C@H](CS(=O)(=O)c2cc(C(=O)Nc3ccc(F)c(F)c3)ccc2Cl)CC1 (stereo partly shown) [Example 225]	6.70 to 7.00
O=C(Nc1ccc(F)c(F)c1)c1ccc(Cl)c(S(=O)(=O)[C@H]2CC3CCC(C2)[C@]3(O)CNC(=O)C2CC2)c1 [Example 158]	> 6.98
C[C@]1(O)C2CCC1C[C@@H](S(=O)(=O)c1cc(C(=O)Nc3ccc(F)c(F)c3)c(-c3nccs3)cc1Cl)C2 [Example 157]	> 6.98
O=C(Nc1ccc(F)c(F)c1)c1ccc(Cl)c(S(=O)(=O)[C@H]2C3CC[C@H]2C[C@](O)(c2ncc[nH]2)C3)c1 [Example 6]	> 6.98

Same assay, conditions: Hepatitis B virus, HePAD38, 120 h, read-out: HepAD38 EC50 (μM)

SMILES	EC50 [µM]
O=C(Nc1cc(F)c(F)c(F)c1)c1ccc(Cl)c(S(=O)(=O)[C@@H]2CC3CC[C@@H](C2)N3C[C@H](O)CO)c1 [Example 153]	0.1 to 0.2
CC1(C)OC[C@H](CN2C3CCC2CC(S(=O)(=O)c2cc(C(=O)Nc4cc(F)c(F)c(F)c4)ccc2Cl)C3)O1 (single isomer, unassigned) [Example 144]	0.1 to 0.2
